These results are taken from ChEMBL document CHEMBL5576057, “Discovery of DS44470011: An oral hypoxia-inducible factor prolyl hydroxylase inhibitor for the treatment of renal anemia” (Bioorg Med Chem Lett, 2024).

For data set [1], the system named is Hep 3B2. Nature of the data set: […] activity against human Hep3B cells assessed as increase of erythropoietin release by measuring effective concentration. In kind it is functional, cell-based.
Data set [2] has as its target Egl nine homolog 1 (Homo sapiens, UniProt Q9GZT9).
Data set [3] in a line: Lipophilicity, logD of the compound. In kind it is physicochemical. The following applies: octanol/water.
Data set [4] is described as follows: Metabolic stability in Cynomolgous monkey assessed as compound remaining. The following applies: cynomolgus monkey. The class given is ADME, Macaca fascicularis.
Data set [5] in a line: Protein binding in Cynomolgous monkey assessed as assessed as unbound fraction. The class given is ADME, Macaca fascicularis. The following applies: cynomolgus monkey.
A short description of data set [6]: Cmax in Cynomolgous monkey at 3 mg/kg,po. The class given is ADME, organism-based, Macaca fascicularis. The following applies: cynomolgus monkey, in vivo.
A short description of data set [7]: AUC in Cynomolgous monkey at 3 mg/kg,po. In kind it is ADME, organism-based, Macaca fascicularis. The note with it: cynomolgus monkey, in vivo.
The nature of data set [8]: Half life in Cynomolgous monkey at 1 mg/kg,iv. In kind it is ADME, organism-based, Macaca fascicularis. The following applies: cynomolgus monkey, in vivo.
The nature of data set [9]: Volume of distribution at steady state in Cynomolgous monkey at 1 mg/kg,iv. The class given is ADME, organism-based, Macaca fascicularis. The note with it: cynomolgus monkey, in vivo, read-out: Vdss.
In data set [10] the test system is Cynomolgus monkey. Nature of the data set: […] activity against Cynomolgous monkey assessed as increase of erythropoietin level in plasma at po administration measured after 12 hrs. The following applies: Macaca fascicularis. The class given is functional, organism-based.
The test system of data set [11] is Cynomolgus monkey. Kind of data set: animal or person. The note with it: Macaca fascicularis, in Primates, po, 24 h.

Active and inactive are the calls of the source. The calls are words filed in the database; no cut-off is given here. Where only a bound is given, the exact number is not on record here.

Sequence of Egl nine homolog 1 (Q9GZT9 whole entry): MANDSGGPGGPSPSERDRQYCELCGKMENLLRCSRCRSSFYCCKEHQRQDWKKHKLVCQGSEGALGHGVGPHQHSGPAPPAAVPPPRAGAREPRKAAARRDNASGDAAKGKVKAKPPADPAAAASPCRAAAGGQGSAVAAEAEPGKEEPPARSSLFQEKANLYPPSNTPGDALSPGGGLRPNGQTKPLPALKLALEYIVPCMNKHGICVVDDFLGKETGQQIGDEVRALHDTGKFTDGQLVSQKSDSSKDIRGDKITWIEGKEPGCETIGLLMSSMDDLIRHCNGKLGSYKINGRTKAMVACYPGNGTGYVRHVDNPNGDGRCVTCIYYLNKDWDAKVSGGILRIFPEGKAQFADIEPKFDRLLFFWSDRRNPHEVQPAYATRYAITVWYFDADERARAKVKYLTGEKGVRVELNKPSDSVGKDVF

In the case of `Cc1nc(Cc2cccc(-c3ccccc3)c2)nc(C(=O)NCC(=O)O)c1O`, in data set [1], the half-maximal effective concentration (EC50) was 61 µM. Besides, in data set [2], inhibition was half-maximal at 20 µM (IC50).

As to `Cc1nc(Cc2ccc(C(F)(F)F)cc2)nc(C(=O)NCC(=O)O)c1O`, the EC50 in data set [1] is 29 µM. Also, the IC50 in [2] came out at 11 µM.

For `Cc1nc(Cc2ccc(-c3ccccc3)cc2)c(O)c(C(=O)NCC(=O)O)n1`, the concentration giving a half-maximal response (EC50) in data set [1] turned out to be 27 µM. Moreover, 10 µM corresponded to half-maximal inhibition in data set [2] (IC50).

`Cc1nc(Cc2ccccc2-c2ccccc2)nc(C(=O)NCC(=O)O)c1O` registered an IC50 in [2] of 17 µM.

In the case of `Cc1nc(Cc2ccc(Cl)cc2)nc(C(=O)NCC(=O)O)c1O`, half-maximal inhibition in data set [2] (IC50) was put at 17 µM.

For the compound `Cc1nc(CCc2ccc(F)cc2)c(O)c(C(=O)NCC(=O)O)n1`, the concentration giving a half-maximal response (EC50) in data set [1] turned out to be 36 µM. This compound showed a half-maximal inhibitory concentration (IC50) in data set [2] of 8.1 µM.

As to `Cc1nc(C(=O)NCC(=O)O)c(O)c(-c2ccc(F)cc2)n1`, the EC50 in [1] was 108 µM. The same compound gave an IC50 in data set [2] of 39 µM.

With `O=C(O)CNC(=O)c1nc(Cc2ccc(-c3ccccc3)cc2)nc(C(F)F)c1O`, the EC50 in data set [1] was found to be 105 µM. This compound also gave an IC50 in [2] of 4.1 µM.

As to `Cc1nc(C(C)c2ccc(-c3ccccc3)cc2)nc(C(=O)NCC(=O)O)c1O` (racemic), the EC50 in [1] is 16 µM. For the same compound, half-maximal inhibition in data set [2] (IC50) required 18 µM.

With `Cc1nc(Cc2ccc(-c3ccccc3)cc2)nc(C(=O)NCC(=O)O)c1C`, in data set [2], the IC50 was above 100 µM.

Consider `Cc1nc(Cc2ccc(-c3ccccc3)cc2)nc(C(=O)NCC(=O)O)c1O`, for which the logD in data set [3] turned out to be 0.8. Further, the Stability in [4] stood at 90%. In addition, the Fu in data set [5] is reported as 0.6%. The Cmax in [6] is 28000 ng/mL. The compound also came in with an AUC in [7] of 380 µg·h/mL. Also, in data set [8], the half-life was 13 h. The Vd in data set [9] came to 0.06 L/kg. Moreover, the EC50 in data set [1] amounted to 8.4 µM. For the same compound, the result in data set [10] was Active. The IC50 in data set [2] worked out at 1.5 µM. The same compound displayed an ED10 in data set [11] of 2.2 mg/kg.

In turn, `Cc1nc(Cc2ccc(-c3ccccc3)cc2)nc(C(=O)N[C@H](C)C(=O)O)c1O` returned an IC50 in data set [2] above 100 µM.

As for `Cc1nc(Cc2ccc(F)cc2)c(O)c(C(=O)NCC(=O)O)n1`, the EC50 in data set [1] came out at 51 µM. In addition, 11 µM corresponded to half-maximal inhibition in data set [2] (IC50).

Consider `O=C(O)CNC(=O)c1nc(Cl)c2ccccc2c1O`, for which the half-maximal effective concentration (EC50) in [1] was 64 µM. In addition, in data set [10], the outcome was Active. The compound further yielded an ED10 in data set [11] of 13 mg/kg.

As to `CCc1nc(Cc2ccc(-c3ccccc3)cc2)nc(C(=O)NCC(=O)O)c1O`, the EC50 in data set [1] was 16 µM. In addition, in data set [2], the IC50 was 7.3 µM.

In [2], `Cc1nc(Cc2ccc(-c3ccccc3)cc2)nc(C(=O)NCC(=O)O)c1N` yielded an IC50 above 100 µM.

Regarding `Cc1nc(Cc2ccc(-c3ccccc3)cc2)nc(C(=O)N[C@@H](C)C(=O)O)c1O`, the EC50 in [1] was 14 µM. The compound also yielded a half-inhibitory concentration (IC50) in [2] of 10 µM.

Consider `Cc1nc(Cc2ccc(-c3ccccc3)cc2)nc(C(=O)NCC(=O)O)c1S`, for which the EC50 in data set [1] turned out to be 67 µM. In data set [2], this compound yielded a half-inhibitory concentration (IC50) of 13 µM.

As to `Cc1nc(Cc2ccc(-c3ccccc3)cc2)nc(C(=O)NCC(=O)O)c1C(=O)O`, the IC50 in data set [2] is above 100 µM.

In [2], `Cc1nc(C(F)(F)c2ccc(-c3ccccc3)cc2)nc(C(=O)NCC(=O)O)c1O` came in with an IC50 of 55 µM.

For the compound `O=C(O)CNC(=O)c1nc(Cc2ccc(-c3ccccc3)cc2)ncc1O`, the 50% inhibitory concentration (IC50) in data set [2] was above 100 µM.

In [2], `Cc1nc(C)c(O)c(C(=O)NCC(=O)O)n1` gave an IC50 of 11 µM.

Take `Cc1nc(Cc2ccc(C(C)(C)C)cc2)nc(C(=O)NCC(=O)O)c1O`: the EC50 in data set [1] amounted to 25 µM. Further, the half-inhibitory concentration (IC50) in data set [2] came out at 3.9 µM.

The EC50 is the concentration at which the effect is half-maximal. One may read the IC50 as the concentration at which inhibition is half-maximal. As usually defined, the logD is lipophilicity at a set pH, counting ionised and neutral species. Broadly, the Cmax is the maximum level reached in the sampled fluid or tissue. Broadly, the AUC is the area under the concentration-time curve, a measure of exposure. The half-life is the time in which the quantity being followed falls by half.
